Laboratory results reported in the supplement of paper PMC8960247.
± gives the standard error.

System: 621-103 (TSC2-rescued)
Assay: relative viability vs DMSO; higher = less cytotoxic
Details: 1 µM; serum: 10% FBS; 72 h
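Note: immortalized renal angiomyolipoma cells stably carrying empty vector or TSC2, dosed in 384-well plates in DMEM, viability normalized to vehicle-treated wells within each plate.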

Question: How did the relative viability turn out when `COc1cccc(-c2cc(=O)c3ccccc3o2)c1N` was run?
Answer: 98.6 ± 2.6%

Question: For `COc1cccc(Nc2c(C(N)=O)cnc3c(C)cc(S(=O)(=O)c4cccc(C(=O)N(C)C)c4)cc23)c1`, which relative viability is on record?
Answer: 95.9 ± 3.8%

Question: `COc1ncc(-c2ccc3nccc(-c4ccnnc4)c3c2)cc1NS(=O)(=O)c1ccc(F)cc1F` was tested. Which relative viability did it give?
Answer: 47.565 ± 0.012%

Question: `C[C@@H](Oc1cc(-c2cnn(C3CCNCC3)c2)cnc1N)c1c(Cl)ccc(F)c1Cl` was tested. Which relative viability did it give?
Answer: 101.6 ± 0.21%

Question: How did the relative viability turn out when `C[C@@H](Oc1cc(-n2cnc3ccc(CN4CCN(C)CC4)cc32)sc1C(N)=O)c1ccccc1C(F)(F)F` was run?
Answer: 40.7 ± 0.62%

Question: `C[C@@H]1CN(CC(=O)Nc2ccc3c(c2)Cc2cccc(-c4cc(=O)cc(N5CCOCC5)o4)c2S3)C[C@H](C)O1` was tested. Which relative viability did it give?
Answer: 77.8 ± 3.1%

Question: With `Cc1ccc(CN2CCNCC2)cc1NC(=O)CNc1ccc(F)c(F)c1` as the compound, how does the relative viability read?
Answer: 95.4 ± 2.7%

Question: For `Cc1cccc(-c2nn3c(c2-c2ccnc4ccc(C(N)=O)cc24)CCC3)n1`, which relative viability is on record?
Answer: 99.2 ± 0.91%

Question: Which relative viability does the source give for `Cc1ccccc1-n1c(Cn2cnc3c(N)ncnc32)nc2cccc(C)c2c1=O` here?
Answer: 99.34 ± 0.9%

Question: `Cn1cc(-c2ccc3nnc(C(F)(F)c4ccc5ncccc5c4)n3n2)cn1` was tested. Which relative viability did it give?
Answer: 100.3 ± 0.95%

Question: With `NC1=N[C@@]2(c3cc(NC(=O)c4ccc(F)cn4)ccc3F)COC[C@H]2CS1` as the compound, how does the relative viability read?
Answer: 99.2 ± 2.8%

Question: Which relative viability does the source give for `Nc1nc(Nc2ccc(S(N)(=O)=O)cc2)nn1C(=O)c1c(F)cccc1F` here?
Answer: 93.5 ± 4.2%

Question: For `O=C(NOCC(O)CO)c1cc(Br)c(F)c(F)c1Nc1ccc(I)cc1F` (stereo not drawn), which relative viability is on record?
Answer: 93.44 ± 0.33%

Question: For `O=C(NOC[C@H](O)CO)c1ccc(F)c(F)c1Nc1ccc(I)cc1F`, which relative viability is on record?
Answer: 87.31 ± 0.23%

Question: How did the relative viability turn out when `O=C(c1ccc(F)cc1)N1CCC[C@H](c2nc(-c3ccc(F)cc3)no2)C1` was run?
Answer: 105 ± 0.68%

Question: For `O=C1NC(=O)/C(=C/c2ccc3nccc(-c4ccncc4)c3c2)S1`, which relative viability is on record?
Answer: 93.69 ± 0.33%

Question: How did the relative viability turn out when `O=c1cc(-c2cccc3c2Sc2ccccc2S3)oc(N2CCOCC2)c1` was run?
Answer: 77.06 ± 0.31%

Question: How did the relative viability turn out when `O=c1cc(N2CCOCC2)oc2c(-c3ccccc3)cccc12` was run?
Answer: 101.1 ± 0.21%

Question: `OCCn1cc(-c2cnc3nnn(Cc4ccc5ncccc5c4)c3n2)cn1` was tested. Which relative viability did it give?
Answer: 103.2 ± 0.56%

Question: How did the relative viability turn out when `Oc1ccc([C@@H]2Oc3ccc(O)cc3[C@@H]3CCC[C@@H]32)cc1` was run?
Answer: 103.1 ± 0.19%

Question: Which relative viability does the source give for `c1ccc2c(CCNc3ccc(Nc4ccncc4)cc3)c[nH]c2c1` here?
Answer: 105 ± 2%

Same assay, conditions: 10 µM; serum: 10% FBS; 72 h

Question: How did the relative viability turn out when `C=CC(=O)N1CCC[C@@H](n2nc(-c3ccc(Oc4ccccc4)cc3)c3c(N)ncnc32)C1` was run?
Answer: 105 ± 3.9%

Question: Which relative viability does the source give for `CC(=O)c1c(C)c2cnc(Nc3ccc(N4CCNCC4)cn3)nc2n(C2CCCC2)c1=O` here?
Answer: 76.7 ± 1.6%

Question: Which relative viability does the source give for `CC(C)(C(=O)NCC(F)(F)C(F)(F)F)C(=O)N[C@@H]1C(=O)Nc2ccccc2-c2ccccc21` here?
Answer: 101.8 ± 0.77%

Question: `CC(C)(C)Cn1c(N)nc2ccc(-c3[nH]c(C(C)(C)C)nc3-c3ccc(F)cc3)nc21` was tested. Which relative viability did it give?
Answer: 78.75 ± 0.41%

Question: For `CC(C)CC(=O)Nc1n[nH]c2c1CN(C(=O)C1CCN(C)CC1)C2(C)C`, which relative viability is on record?
Answer: 22.5 ± 1.5%

Question: Which relative viability does the source give for `CC(C)c1cc(-c2ccc(F)c3ccccc23)nc(N)n1` here?
Answer: 98.4 ± 1.7%

Question: For `CC1(C)C(=O)N(CCN2CCC(C(=O)c3ccc(F)cc3)CC2)c2ccccc21`, which relative viability is on record?
Answer: 94.8 ± 1.9%

Question: With `CC1(C)CC(=O)c2c(C(F)(F)F)nn(-c3ccc(C(N)=O)c(N[C@H]4CC[C@H](OC(=O)CN)CC4)c3)c2C1` as the compound, how does the relative viability read?
Answer: 7.58 ± 0.32%

Question: How did the relative viability turn out when `CC1=C(C(=O)Nc2cc3cn[nH]c3cc2F)C(c2ccc(C(F)(F)F)cc2)CC(=O)N1` (stereo not drawn) was run?
Answer: 96.4 ± 2.7%

Question: How did the relative viability turn out when `CN(C)Cc1ccc(-c2nc3cccc4c3n2CCNC4=O)cc1` was run?
Answer: 97.7 ± 0.77%

Question: How did the relative viability turn out when `CN(c1ncccc1CNc1nc(Nc2ccc3c(c2)CC(=O)N3)ncc1C(F)(F)F)S(C)(=O)=O` was run?
Answer: 38.2 ± 5.9%

Question: `CN1CCN(c2ccc([N+](=O)[O-])c3no[n+]([O-])c23)CC1` was tested. Which relative viability did it give?
Answer: 65.3 ± 5%

Question: With `CNC(=O)c1ccc(C)c(-n2c(C)cc(OCc3ccc(F)cc3F)c(Br)c2=O)c1` as the compound, how does the relative viability read?
Answer: 95 ± 2.2%

Question: `CNCc1ccc(-c2[nH]c3cc(F)cc4c3c2CCNC4=O)cc1` was tested. Which relative viability did it give?
Answer: 88 ± 1.9%

Question: Which relative viability does the source give for `COC(=O)N1CCN(Cc2cccc(NC(=O)Nc3ccc(C)nc3)c2F)CC1` here?
Answer: 104 ± 2.6%

Question: `COc1cc(Nc2ncc(F)c(Nc3ccc4c(n3)N(COP(=O)(O)O)C(=O)C(C)(C)O4)n2)cc(OC)c1OC` was tested. Which relative viability did it give?
Answer: 14.7 ± 0.48%

Question: Which relative viability does the source give for `COc1cc(OC)c(/C=C/S(=O)(=O)Cc2ccc(OC)c(NCC(=O)O)c2)c(OC)c1` here?
Answer: 24.1 ± 0.81%

Question: For `COc1cc(OC)c(NC(=O)Nc2cc(C)on2)cc1Cl`, which relative viability is on record?
Answer: 111 ± 2.2%

Question: `COc1cc2ncnc(Nc3cccc(Br)c3)c2cc1OC` was tested. Which relative viability did it give?
Answer: 92.1 ± 4.8%

Question: How did the relative viability turn out when `COc1ccc(-c2cc3c(C)nc(N)nc3n([C@H]3CC[C@H](OCCO)CC3)c2=O)cn1` was run?
Answer: 18.61 ± 0.18%

Question: For `COc1ccc(-c2ccc3c(N4CCOCC4)nc(N4C[C@@H](C)O[C@@H](C)C4)nc3n2)cc1CO`, which relative viability is on record?
Answer: 41.9 ± 0.85%

Question: How did the relative viability turn out when `COc1cccc(-c2cc(=O)c3ccccc3o2)c1N` was run?
Answer: 97.6 ± 3.2%

Question: Which relative viability does the source give for `COc1cccc(Nc2c(C(N)=O)cnc3c(C)cc(S(=O)(=O)c4cccc(C(=O)N(C)C)c4)cc23)c1` here?
Answer: 93.3 ± 3.2%

Question: `COc1ncc(-c2ccc3nccc(-c4ccnnc4)c3c2)cc1NS(=O)(=O)c1ccc(F)cc1F` was tested. Which relative viability did it give?
Answer: 41 ± 2.4%

Question: For `C[C@@H](Oc1cc(-c2cnn(C3CCNCC3)c2)cnc1N)c1c(Cl)ccc(F)c1Cl`, which relative viability is on record?
Answer: 5.36 ± 0.69%

Question: How did the relative viability turn out when `C[C@@H](Oc1cc(-n2cnc3ccc(CN4CCN(C)CC4)cc32)sc1C(N)=O)c1ccccc1C(F)(F)F` was run?
Answer: 9.95 ± 0.89%

Question: How did the relative viability turn out when `C[C@@H]1CN(CC(=O)Nc2ccc3c(c2)Cc2cccc(-c4cc(=O)cc(N5CCOCC5)o4)c2S3)C[C@H](C)O1` was run?
Answer: 59.4 ± 5.5%

Question: How did the relative viability turn out when `Cc1ccc(CN2CCNCC2)cc1NC(=O)CNc1ccc(F)c(F)c1` was run?
Answer: 90.85 ± 0.73%

Question: Which relative viability does the source give for `Cc1cccc(-c2nn3c(c2-c2ccnc4ccc(C(N)=O)cc24)CCC3)n1` here?
Answer: 106 ± 1.6%

Question: For `Cc1ccccc1-n1c(Cn2cnc3c(N)ncnc32)nc2cccc(C)c2c1=O`, which relative viability is on record?
Answer: 96.2 ± 2.4%

Question: With `Cn1cc(-c2ccc3nnc(C(F)(F)c4ccc5ncccc5c4)n3n2)cn1` as the compound, how does the relative viability read?
Answer: 98.25 ± 0.26%

Question: With `NC1=N[C@@]2(c3cc(NC(=O)c4ccc(F)cn4)ccc3F)COC[C@H]2CS1` as the compound, how does the relative viability read?
Answer: 93.7 ± 1.1%

Question: Which relative viability does the source give for `Nc1nc(Nc2ccc(S(N)(=O)=O)cc2)nn1C(=O)c1c(F)cccc1F` here?
Answer: 40.01 ± 0.12%

Question: Which relative viability does the source give for `O=C(NOCC(O)CO)c1cc(Br)c(F)c(F)c1Nc1ccc(I)cc1F` (stereo not drawn) here?
Answer: 74.3 ± 5.1%

Question: For `O=C(NOC[C@H](O)CO)c1ccc(F)c(F)c1Nc1ccc(I)cc1F`, which relative viability is on record?
Answer: 64.6 ± 1.8%

Question: How did the relative viability turn out when `O=C(c1ccc(F)cc1)N1CCC[C@H](c2nc(-c3ccc(F)cc3)no2)C1` was run?
Answer: 108 ± 4.5%

Question: Which relative viability does the source give for `O=C1NC(=O)/C(=C/c2ccc3nccc(-c4ccncc4)c3c2)S1` here?
Answer: 33.1 ± 0.64%

Question: With `O=c1cc(-c2cccc3c2Sc2ccccc2S3)oc(N2CCOCC2)c1` as the compound, how does the relative viability read?
Answer: 69.3 ± 3.3%

Question: How did the relative viability turn out when `O=c1cc(N2CCOCC2)oc2c(-c3ccccc3)cccc12` was run?
Answer: 65.2 ± 1.9%

Question: For `OCCn1cc(-c2cnc3nnn(Cc4ccc5ncccc5c4)c3n2)cn1`, which relative viability is on record?
Answer: 99.7 ± 2.3%

Question: `Oc1ccc([C@@H]2Oc3ccc(O)cc3[C@@H]3CCC[C@@H]32)cc1` was tested. Which relative viability did it give?
Answer: 66.2 ± 5.5%

Question: For `c1ccc2c(CCNc3ccc(Nc4ccncc4)cc3)c[nH]c2c1`, which relative viability is on record?
Answer: 64.7 ± 3.8%
